Experimental data from US5872130A, “Quinoline type mevalonoactones” (Nissan Chemical Industries Ltd., priority 1988, dated 1999).

Test system: cholesterol biosynthesis
Assay: Test A: Inhibition of cholesterol biosynthesis from acetate in vitro (rat liver microsome and sup fraction)
Assay type: biochemical, male Wistar rat
Conditions: based on the activities of CS-514 being evaluated to be 1
Method: Test A: Inhibition of cholesterol biosynthesis from acetate in vitro
Enzyme solution was prepared from liver of male Wistar rat billialy cannulated and discharged bile for over 24 hours. Liver was cut out at mid-dark and microsome and supernatant fraction which was precipitable with 40-80% of saturation of ammonium sulfate (sup fraction) were prepared from liver homogenate according to the modified method of Knauss et al; Kuroda, M, et al, Biochim. Biophys. Acta, 489, 119 (1977). For assay of cholesterol biosynthesis, microsome (0.1 mg protein) and sup fraction (1.0 mg protein) were incubated for 2, hours at 37° C. in 200 μl of the reaction mixture containing ATP; 1 mM, Glutathione; 6 mM, Glucose-1-phosphate; 10 mM, NAD; 0.25 mM, NADP; 0.25 mM, CoA; 0.04 mM and 0.2 mM [2-^14 C]sodium acetate (0.2 μCi) with 4 μl of test compound solution dissolved in water or dimethyl sulfoxide. To stop reaction and saponify, 1 ml of 15% EtOH-KOH was added to the reactions and heated at 75° C. for 1 hour. […] Inhibitory activity of compounds was indicated with IC50.

| SMILES | Relative activities by Test A |
| --- | --- |
| CCOC(=O)CC(O)CC(O)/C=C/c1c(CC)nc2ccccc2c1-c1ccc(F)cc1 (centres unmarked) [I-117] | 0.37 |
| CC(C)c1nc2c(Cl)cc(Cl)cc2c(-c2ccc(F)cc2)c1/C=C/C(O)CC(O)CC(=O)O (centres unmarked) [I-522] | 0.76 |
